Results: patent US20140023611A1 (priority 2010, published 2014)

Key:
[1] = Determination of compound Cmax and AUC after oral gavage (plasma LC-MS/MS); assay type: in vivo, Sprague-Dawley rats; conditions: Sprague-Dawley, rat, plasma, po, Structure (I) examples, Table 15, actual oral dose 3-15 mg/kg, plasma 0.5-4 h
Method: (§1) Sprague-Dawley rats were orally gavaged with test article at a nominal dose of 2.5 or 10 mg/kg and blood was collected at 0.5, 1, 2 and 4 h. Blood samples were processed to plasma using K2EDTA as an anticoaglulant. Plasma samples were treated with acetonitrile containing an internal standard, precipitated proteins removed by centrifugation. Supernatants were analyzed by LC-MS/MS and compound concentrations were determined by interpolation from a standard curve prepared in plasma. All compounds were orally dosed at the dosage shown, and pharmacokinetic parameters determined.
as §1, with “interpolated” for “interpolation”
as §1, with “interpolated” for “interpolation”

rat NaP2b (SLC34A2) = target: T1, rat NaP2b (SLC34A2) (Rattus norvegicus, UniProt Q9JJ09); test: Inhibition of NaP2b-mediated Pi (33P) uptake in transfected HEK293 cells, rat NaP2b; assay type: cell-based; conditions: 33P Pi uptake, 0.1 mM phosphate, value given as pIC50 range
T1 construct: host or cells: HEK293
T1 sequence (Q9JJ09 1-695): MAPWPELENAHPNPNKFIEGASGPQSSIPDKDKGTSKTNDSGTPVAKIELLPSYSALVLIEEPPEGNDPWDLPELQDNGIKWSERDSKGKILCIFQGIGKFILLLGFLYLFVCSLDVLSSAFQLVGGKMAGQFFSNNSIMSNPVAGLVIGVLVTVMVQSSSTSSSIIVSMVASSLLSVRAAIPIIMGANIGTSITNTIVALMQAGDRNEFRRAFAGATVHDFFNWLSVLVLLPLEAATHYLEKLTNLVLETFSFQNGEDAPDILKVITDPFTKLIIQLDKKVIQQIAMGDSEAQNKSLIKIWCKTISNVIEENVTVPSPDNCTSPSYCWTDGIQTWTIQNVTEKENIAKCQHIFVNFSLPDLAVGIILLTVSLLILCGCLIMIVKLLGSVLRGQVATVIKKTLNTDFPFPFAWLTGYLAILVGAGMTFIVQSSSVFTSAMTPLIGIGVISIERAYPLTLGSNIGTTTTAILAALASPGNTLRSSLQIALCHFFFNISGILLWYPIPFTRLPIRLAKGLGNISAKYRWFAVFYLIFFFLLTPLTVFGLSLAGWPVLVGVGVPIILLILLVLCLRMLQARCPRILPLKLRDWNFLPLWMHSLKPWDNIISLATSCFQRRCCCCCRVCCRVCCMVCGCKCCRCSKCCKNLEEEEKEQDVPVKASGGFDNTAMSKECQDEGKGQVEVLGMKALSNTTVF
Procedure, shortened: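 HEK293 cells were transiently transfected with NaP2b cDNA using Lipofectamine and grown near confluence. Compounds were tested at twelve concentrations from 0.1 nM to 30 uM in duplicate, and 33P-phosphate uptake was counted by scintillation after lysis. Results are expressed as pIC50.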

[2] = Stability of compounds in simulated gastric fluid (SGF); assay type: in vitro ADME; conditions: simulated gastric fluid (3 mg/mL pepsin), incubation time 6 hr, relative to t=0
Method: (§2) Test compounds were incubated at […] in simulated gastric fluid (SGF; standard USP solution with 3 mg/mL pepsin) or simulated intestinal fluid (SIF; standard USP solution with 3 mg/mL pancreatin) for 3 hr or 6 hr. HPLC-UV or HPLC-MS were used to determine test compound levels using peak area %. Results (Table 14) were reported as the percentage of test compound remaining after incubation in a given condition relative to test compound present at t=0 in the same condition.

[3] = Stability of compounds in simulated intestinal fluid (SIF); assay type: in vitro ADME; conditions: simulated intestinal fluid (3 mg/mL pancreatin), incubation time 6 hr, relative to t=0
Method: as §2

COCCN(C)C(=O)N1CCN(CCN(C)Cc2cccc(C(=O)Nc3ccc(N4CCCCC4)cc3-c3cc(C(=O)NCc4cccc(C(F)(F)F)c4)ccn3)n2)CC1 [Example 210, N-(2-methoxyethyl)-N-methyl-4-(2-(methyl((6-(4-(piperidin-1-yl)-2-(4-(3-(trifluoromethyl)benzylcarbamoyl)pyridin-2-yl)phenylcarbamoyl)pyridin-2-yl)methyl)amino)ethyl)piperazine-1-carboxamide]
AUC [1]: < 30 ng·h/mL
Cmax [1]: < 10 ng/mL
IC50 (rat NaP2b (SLC34A2)): 10 to 31.6 µM
% remaining, SGF [2]: >80%
% remaining, SIF [3]: >80%

CCN(CC)CCN(C)C(=O)CCOCCOCCOCCOCCSCc1cccc(C(=O)Nc2ccc(N3CCCCC3)cc2-c2cc(C(=O)NCc3cccc(C(F)(F)F)c3)ccn2)c1 [Example 152, 2-(2-(3-(21-ethyl-18-methyl-17-oxo-5,8,11,14-tetraoxa-2-thia-18,21-diazatricosyl)benzamido)-5-(piperidin-1-yl)phenyl)-N-(3-(trifluoromethyl)benzyl)isonicotinamide]
AUC [1]: < 10 ng·h/mL
Cmax [1]: < 10 ng/mL
IC50 (rat NaP2b (SLC34A2)): 1 to 7.94 µM
% remaining, SGF [2]: >80%
% remaining, SIF [3]: >80%

CCN(CC)c1ccc(NC(=O)c2cccc(CSCCOCCOCCOCCOCCC(=O)O)c2)c(-c2cc(C(=O)N[C@H]3CCCc4ccccc43)ccn2)c1 [Example 157, (S)-1-(3-(4-(diethylamino)-2-(4-(1,2,3,4-tetrahydronaphthalen-1-ylcarbamoyl)pyridin-2-yl)phenylcarbamoyl)phenyl)-5,8,11,14-tetraoxa-2-thiaheptadecan-17-oic acid]
AUC [1]: < 10 ng·h/mL
Cmax [1]: < 10 ng/mL
IC50 (rat NaP2b (SLC34A2)): < 1 µM
% remaining, SGF [2]: >80%
% remaining, SIF [3]: >80%

CN(CCN1CCC[C@H]1C(=O)NCCOCCOCCOCCC(=O)O)C(=O)c1cccc(C(=O)Nc2ccc(N3CCCCC3)cc2-c2cc(C(=O)N[C@H]3CCCc4ccccc43)ccn2)c1 [Example 193, 1-((S)-1-(2-(N-methyl-3-((4-(piperidin-1-yl)-2-(4-(((S)-1,2,3,4-tetrahydronaphthalen-1-yl)carbamoyl)pyridin-2-yl)phenyl)carbamoyl)benzamido)ethyl)pyrrolidin-2-yl)-1-oxo-5,8,11-trioxa-2-azatetradecan-14-oic acid]
AUC [1]: < 30 ng·h/mL
Cmax [1]: < 10 ng/mL
IC50 (rat NaP2b (SLC34A2)): 10 to 31.6 µM
% remaining, SGF [2]: >80%
% remaining, SIF [3]: >80%

COCCOCCOCCOCCOCCOCCOCCNC(=O)[C@H]1CCCN(C(=O)c2cccc(C(=O)Nc3ccc(N4CCCCC4)cc3-c3cc(C(=O)N[C@H]4CCCc5ccccc54)ccn3)c2)C1 [Example 256, 2-(2-(3-((S)-3-(2,5,8,11,14,17,20-heptaoxadocosan-22-ylcarbamoyl)piperidine-1-carbonyl)benzamido)-5-(piperidin-1-yl)phenyl)-N—((S)-1,2,3,4-tetrahydronaphthalen-1-yl)isonicotinamide]
AUC [1]: < 10 ng·h/mL
Cmax [1]: < 10 ng/mL
IC50 (rat NaP2b (SLC34A2)): 1 to 7.94 µM
% remaining, SGF [2]: >80%
% remaining, SIF [3]: >80%

CCN(CC)c1ccc(NC(=O)c2cccc(C(=O)N(C)CCN3CCOCC3)c2)c(-c2cc(C(=O)N[C@H]3CCCc4ccccc43)ccn2)c1 [Example 131, (S)—N^1-(4-(diethylamino)-2-(4-((1,2,3,4-tetrahydronaphthalen-1-yl)carbamoyl)pyridin-2-yl)phenyl)-N^3-methyl-N^3-(2-morpholinoethyl)isophthalamide]
AUC [1]: < 50 ng·h/mL
Cmax [1]: < 30 ng/mL
IC50 (rat NaP2b (SLC34A2)): < 1 µM
% remaining, SGF [2]: >80%
% remaining, SIF [3]: >80%

COCCN(C)C(=O)N1CCN(CCN(C)Cc2cccc(C(=O)Nc3ccc(N4CCCCC4)cc3-c3cc(C(=O)NCc4cccc(C(F)(F)F)c4)ccn3)c2)CC1 [Example 209, N-(2-methoxyethyl)-N-methyl-4-(2-(methyl(3-(4-(piperidin-1-yl)-2-(4-(3-(trifluoromethyl)benzylcarbamoyl)pyridin-2-yl)phenylcarbamoyl)benzyl)amino)ethyl)piperazine-1-carboxamide]
AUC [1]: < 30 ng·h/mL
Cmax [1]: < 30 ng/mL
IC50 (rat NaP2b (SLC34A2)): 1 to 7.94 µM
% remaining, SGF [2]: >80%
% remaining, SIF [3]: 60-80%

CN(CCOCCOCCOCCC(=O)O)C(=O)Cc1cccc(SCc2cccc(C(=O)Nc3ccc(N4CCCCC4)cc3-c3cc(C(=O)N[C@H]4CCCc5ccccc54)ccn3)c2)c1 [Example 235, (S)-3-methyl-2-oxo-1-(3-(3-(4-(piperidin-1-yl)-2-(4-(1,2,3,4-tetrahydronaphthalen-1-ylcarbamoyl)pyridin-2-yl)phenylcarbamoyl)benzylthio)phenyl)-6,9,12-trioxa-3-azapentadecan-15-oic acid]
IC50 (rat NaP2b (SLC34A2)): < 1 µM
% remaining, SGF [2]: >80%
% remaining, SIF [3]: >80%

CCN(CC)c1ccc(NC(=O)c2cccc(Cn3ccc4c(C(=O)NCCOCCOCCOCCC(=O)O)cccc43)c2)c(-c2cc(C(=O)N[C@H]3CCCc4ccccc43)ccn2)c1 [Example 182, (S)-1-(1-(3-(4-(diethylamino)-2-(4-(1,2,3,4-tetrahydronaphthalen-1-ylcarbamoyl)pyridin-2-yl)phenylcarbamoyl)benzyl)-1H-indol-4-yl)-1-oxo-5,8,11-trioxa-2-azatetradecan-14-oic acid]
% remaining, SGF [2]: >80%
% remaining, SIF [3]: >80%

CN(CC(=O)N1CCN(CCOCCO)CC1)C(=O)c1cccc(C(=O)Nc2ccc(N3CCCCC3)cc2-c2cc(C(=O)N[C@H]3CCCc4ccccc43)ccn2)c1 [Example 246, (S)—N1-(2-(4-(2-(2-hydroxyethoxy)ethyl)piperazin-1-yl)-2-oxoethyl)-N1-methyl-N3-(4-(piperidin-1-yl)-2-(4-(1,2,3,4-tetrahydronaphthalen-1-ylcarbamoyl)pyridin-2-yl)phenyl)isophthalamide]
AUC [1]: < 10 ng·h/mL
Cmax [1]: < 10 ng/mL
IC50 (rat NaP2b (SLC34A2)): 1 to 7.94 µM
% remaining, SGF [2]: >80%
% remaining, SIF [3]: >80%

O=C(CCOCCOCCOCCOCCSCc1cccc(C(=O)Nc2ccc(N3CCCCC3)cc2-c2cc(C(=O)NCc3cccc(C(F)(F)F)c3)ccn2)c1)NCCN1CCOCC1 [Example 146, 2-(2-(3-(20-morpholino-17-oxo-5,8,11,14-tetraoxa-2-thia-18-azaicosyl)benzamido)-5-(piperidin-1-yl)phenyl)-N-(3-(trifluoromethyl)benzyl)isonicotinamide]
AUC [1]: < 10 ng·h/mL
Cmax [1]: < 10 ng/mL
IC50 (rat NaP2b (SLC34A2)): 1 to 7.94 µM
% remaining, SGF [2]: >80%
% remaining, SIF [3]: 60-80%

CCN(CC)c1ccc(NC(=O)c2cccc(C(=O)N(C)CCN3CCCN(C(=O)OCCOCCOCCOCCOCCOCCOCCOCCOCCOCCOCCOC)CC3)c2)c(-c2cc(C(=O)N[C@H]3CCCc4ccccc43)ccn2)c1 [Example 199, (S)-2,5,8,11,14,17,20,23,26,29,32-undecaoxatetratriacontan-34-yl 4-(2-(3-((4-(diethylamino)-2-(4-((1,2,3,4-tetrahydronaphthalen-1-yl)carbamoyl)pyridin-2-yl)phenyl)carbamoyl)-N-methylbenzamido)ethyl)-1,4-diazepane-1-carboxylate]
AUC [1]: < 10 ng·h/mL
Cmax [1]: < 10 ng/mL
% remaining, SGF [2]: >80%
% remaining, SIF [3]: >80%
